± gives the expanded uncertainty stated by the source. One block for each compound: values may come before it.
Assays:
[1] = refractive index (Na D-line) (dimensionless); details: 298.15 K; 101.33 kPa; Liquid; Standard Abbe refractometry
[2] = for surface tension liquid-gas / mass density: 298.15 K; for surface tension liquid-gas: Maximal bubble pressure; for mass density: 101.33 kPa, Vibrating tube method; for mass density / vapor or sublimation pressure: Liquid; for vapor or sublimation pressure: Ebulliometric method (Recirculating still)
[3] = xn = mol fraction of the nth substance listed; details: 303.15 K, Maximal bubble pressure

refractive index [1]: 1.38712 ± 0.00072
surface tension liquid-gas [2]: 22 ± 0.23 mN/m
mass density [2]: 765.8 ± 0.18 kg/m3
vapor or sublimation pressure ([2]; 359.52 K): 101.33 ± 0.21 kPa
Compound: CCC(C)(C)OC [2-methoxy-2-methylbutane]

surface tension liquid-gas ([3]; x2 = 0): 22 ± 0.26 mN/m
surface tension liquid-gas ([3]; x2 = 0.04): 21.97 ± 0.26 mN/m
surface tension liquid-gas ([3]; x2 = 0.071): 21.95 ± 0.26 mN/m
surface tension liquid-gas ([3]; x2 = 0.137): 21.93 ± 0.26 mN/m
surface tension liquid-gas ([3]; x2 = 0.198): 21.9 ± 0.26 mN/m
surface tension liquid-gas ([3]; x2 = 0.252): 21.88 ± 0.26 mN/m
surface tension liquid-gas ([3]; x2 = 0.303): 21.86 ± 0.26 mN/m
surface tension liquid-gas ([3]; x2 = 0.41): 21.84 ± 0.26 mN/m
surface tension liquid-gas ([3]; x2 = 0.508): 21.81 ± 0.26 mN/m
surface tension liquid-gas ([3]; x2 = 0.611): 21.78 ± 0.26 mN/m
surface tension liquid-gas ([3]; x2 = 0.708): 21.76 ± 0.26 mN/m
surface tension liquid-gas ([3]; x2 = 0.803): 21.73 ± 0.26 mN/m
surface tension liquid-gas ([3]; x2 = 0.898): 21.71 ± 0.26 mN/m
Compound: CCC(C)(C)OC [2-methoxy-2-methylbutane] + CCO

refractive index [1]: 1.36068 ± 0.00072
surface tension liquid-gas [2]: 21.7 ± 0.23 mN/m
mass density [2]: 785.05 ± 0.16 kg/m3
vapor or sublimation pressure ([2]; 351.45 K): 101.33 ± 0.21 kPa
Compound: CCO [ethanol]

surface tension liquid-gas ([3]; x1 = 1): 21.7 ± 0.26 mN/m
Compound: CCO [ethanol] + CCC(C)(C)OC
